Test results taken from US20250051277A1, “DELIVERY OF THERAPEUTIC ALKALOID COMPOUNDS” (Sensorium Therapeutics, Inc., priority 2021, published 2025).
Read-outs that look alike come from different tables or passages of the source.

Columns and labels:
[1] = Plasma Stability Assay of Example A3, human plasma; details: 5 μM, 37° C., % of prodrug compound remaining
[2] = Plasma Stability Assay of Example A3, mouse plasma; details: 5 μM, 37° C., % of prodrug compound remaining
[3] = type: physicochemical; details: SGF with pepsin, pH 1.5, 37° C., 0.5 mM
[4] = type: physicochemical; details: DI water, 25° C., 0.5 mM
[5] = 5 μM
[6] = 10 μM
Procedure: (§1) 50 μL aliquots of positive controls and test compounds spiked into rat or human plasma (n=2) were added to a pre-warmed plate (37° C.) and shaken at 50 rpm. At each respective time point, the reaction was stopped by adding 500 μL of acetonitrile containing internal standards (100 nM aprozolam, 200 nM caffeine, 100 nM tolbutamide). All samples were vortexed for 10 minutes, followed by centrifugation at 3,220 g for 30 minutes to precipitate proteins. 100 μL of the supernatant is transferred to a new plate. The supernatant will be diluted with ultrapure water according to the LC-MS signal response and peak shape.

[7] = 10 μM; remark: listed apart in the source
Procedure: as §1

Row | Structure (SMILES) | Human Plasma Prodrug (%) ([1]; 0 min) | Human Plasma Prodrug (%) ([1]; 15 min) | Human Plasma Prodrug (%) ([1]; 30 min) | Human Plasma Prodrug (%) ([1]; 60 min) | Human Plasma Prodrug (%) ([1]; 120 min) | Human Plasma Prodrug (%) ([1]; 240 min) | Mouse Plasma Prodrug (%) ([2]; 0 min) | Mouse Plasma Prodrug (%) ([2]; 15 min) | Prodrug (%) remaining, Human Plasma ([6]; 0 h) [%] | Prodrug (%) remaining, Human Plasma ([6]; 10 min) [%] | Prodrug (%) remaining, Human Plasma ([6]; 0.5 h) [%] | Prodrug (%) remaining, Human Plasma ([6]; 1 h) [%] | Prodrug (%) remaining, Human Plasma ([6]; 2 h) [%] | Prodrug (%) remaining, Human Plasma ([6]; 4 h) [%] | Prodrug (%) remaining, Rat Plasma ([7]; 0 h) [%] | Prodrug (%) remaining, Rat Plasma ([7]; 10 min) [%] | Prodrug (%) remaining, Rat Plasma ([7]; 0.5 h) [%] | Prodrug (%) remaining, Rat Plasma ([7]; 1 h) [%] | Prodrug (%) remaining, Rat Plasma ([7]; 2 h) [%] | Prodrug (%) remaining, Rat Plasma ([7]; 4 h) [%] | further results
1 | COc1ccc([C@@]23CCC(OC(=O)C(c4ccccc4)c4ccccc4)=C[C@@H]2N(C)CC3)cc1OC [Compound 306, [(3aS,7aS)-3a-(3,4-dimethoxyphenyl)-1-methyl-3,4,5,7a-tetrahydro-2H-indol-6-yl]2,2-diphenylacetate] | 100.0 | 89.5 | 75.2 | 53.7 | 32.4 | 13.8 | 100.0 | 6.2 |  |  |  |  |  |  |  |  |  |  |  |  | Mouse Plasma Prodrug (%) ([2]; 60 min): 1.6%; Mouse Plasma Prodrug (%) ([2]; 120 min): 0.4%; Mouse Plasma Prodrug (%) ([2]; 240 min): 0.1%; Condition 1 Conversion (%) ([3]; time 1 min): 0%; Condition 1 Conversion (%) ([3]; time 5 min): 0%; Condition 1 Conversion (%) ([3]; time 30 min): 0%; Condition 1 Conversion (%) ([3]; time 1 h): 0%; Condition 1 Conversion (%) ([3]; time 4 h): 0%; Condition 1 Conversion (%) ([3]; time 24 h): 0%; Condition 2 Conversion (%) ([4]; time 1 min): 0%; Condition 2 Conversion (%) ([4]; time 5 min): 0%; Condition 2 Conversion (%) ([4]; time 30 min): 0%; Condition 2 Conversion (%) ([4]; time 1 h): 0%; Condition 2 Conversion (%) ([4]; time 4 h): 0%; Condition 2 Conversion (%) ([4]; time 24 h): 0%
2 | COc1ccc([C@@]23CCC(OC(=O)c4cccc(N(C)C)c4)=C[C@@H]2N(C)CC3)cc1OC [Compound 307, [(3aS,7aS)-3a-(3,4-dimethoxyphenyl)-1-methyl-3,4,5,7a-tetrahydro-2H-indol-6-yl]3-(dimethylamino)benzoate] | 100.0 | 88.5 | 87.6 | 83.0 | 71.1 | 57.5 | 100.0 | 18.1 |  |  |  |  |  |  |  |  |  |  |  |  | Mouse Plasma Compound 001 (%) ([5]; 15 min): 73.4%; Mouse Plasma Compound 001 (%) ([5]; 30 min): 81.1%; Mouse Plasma Compound 001 (%) ([5]; 60 min): 86.3%; Mouse Plasma Compound 001 (%) ([5]; 120 min): 79.9%; Mouse Plasma Compound 001 (%) ([5]; 240 min): 79.0%; Mouse Plasma Prodrug (%) ([2]; 30 min): 3.8%; Mouse Plasma Prodrug (%) ([2]; 60 min): 0.1%; Mouse Plasma Prodrug (%) ([2]; 120 min): 0.0%; Mouse Plasma Prodrug (%) ([2]; 240 min): 0.0%
3 | COc1ccc([C@@]23CCC(OC(=O)c4ccc(C(F)(F)F)cc4)=C[C@@H]2N(C)CC3)cc1OC [Compound 310] | 100.0 | 89.9 | 84.5 | 77.3 | 63.4 | 35.1 | 100.0 | 0.4 |  |  |  |  |  |  |  |  |  |  |  |  | Mouse Plasma Prodrug (%) ([2]; 30 min): 0.1%; Mouse Plasma Prodrug (%) ([2]; 60 min): 0.1%; Mouse Plasma Prodrug (%) ([2]; 120 min): 0.1%; Mouse Plasma Prodrug (%) ([2]; 240 min): 0.1%
4 | COc1ccc([C@@]23CCC(OC(=O)c4ccc(F)cc4)=C[C@@H]2N(C)CC3)cc1OC [Compound 353, (3aS,7aS)-3a-(3,4-dimethoxyphenyl)-1-methyl-2,3,3a,4,5,7a-hexahydro-1H-indol-6-yl4-fluorobenzoate] | 100 | 95.4 | 90.1 | 79.7 | 55.3 | 39.6 | 100 | 0 |  |  |  |  |  |  |  |  |  |  |  |  | Mouse Plasma Compound 001 (%) ([5]; 0 min): 47.7%; Mouse Plasma Compound 001 (%) ([5]; 15 min): 55%; Mouse Plasma Compound 001 (%) ([5]; 30 min): 51.6%; Mouse Plasma Compound 001 (%) ([5]; 60 min): 50.6%; Mouse Plasma Compound 001 (%) ([5]; 120 min): 46.4%; Mouse Plasma Compound 001 (%) ([5]; 240 min): 29.3%; Mouse Plasma Prodrug (%) ([2]; 30 min): 0%; Mouse Plasma Prodrug (%) ([2]; 60 min): 0%; Mouse Plasma Prodrug (%) ([2]; 120 min): 0%; Mouse Plasma Prodrug (%) ([2]; 240 min): 0%
5 | CCC(CC)C(=O)OC1=C[C@@H]2N(C)CC[C@]2(c2ccc(OC)c(OC)c2)CC1 [Compound 426, (3aS,7aS)-3a-(3,4-dimethoxyphenyl)-1-methyl-2,3,3a,4,5,7a-hexahydro-1H-indol-6-yl2-ethylbutanoate] |  |  |  |  |  |  |  |  | 100.0 | 87.1 | 80.3 | 79.2 | 73.6 | 66.4 | 100.0 | 70.2 | 33.2 | 9.5 | 0.9 | 0.1 | 
6 | CCCC(CCC)C(=O)OC1=C[C@@H]2N(C)CC[C@]2(c2ccc(OC)c(OC)c2)CC1 [Compound 427, (3aS,7aS)-3a-(3,4-dimethoxyphenyl)-1-methyl-2,3,3a,4,5,7a-hexahydro-1H-indol-6-yl2-propylpentanoate] |  |  |  |  |  |  |  |  | 100.0 | >99 | 96.6 | 96.9 | 95.5 | 91.2 | 100.0 | 93.6 | 73.4 | 43.9 | 16.0 | 2.3 | 
7 | CCC(C)(C)C(=O)OC1=C[C@@H]2N(C)CC[C@]2(c2ccc(OC)c(OC)c2)CC1 [Compound 428, (3aS,7aS)-3a-(3,4-dimethoxyphenyl)-1-methyl-2,3,3a,4,5,7a-hexahydro-1H-indol-6-yl2,2-dimethylbutanoate] |  |  |  |  |  |  |  |  | 100.0 | 82.9 | 74.5 | 69.1 | 56.8 | 46.0 | 100.0 | 90.3 | 69.9 | 41.7 | 18.1 | 3.9 | 
8 | CCCC(C)(C)C(=O)OC1=C[C@@H]2N(C)CC[C@]2(c2ccc(OC)c(OC)c2)CC1 [Compound 429, (3aS,7aS)-3a-(3,4-dimethoxyphenyl)-1-methyl-2,3,3a,4,5,7a-hexahydro-1H-indol-6-yl2,2-dimethylpentanoate] |  |  |  |  |  |  |  |  | 100.0 | >99 | 96.3 | 95.3 | 91.8 | 84.6 | 100.0 | 90.4 | 83.9 | 71.9 | 50.8 | 26.2 | 
9 | CCC(C)(CC)C(=O)OC1=C[C@@H]2N(C)CC[C@]2(c2ccc(OC)c(OC)c2)CC1 [Compound 430, (3aS,7aS)-3a-(3,4-dimethoxyphenyl)-1-methyl-2,3,3a,4,5,7a-hexahydro-1H-indol-6-yl2-ethyl-2-methylbutanoate] |  |  |  |  |  |  |  |  | 100.0 | >99 | >99 | >99 | >99 | 95.9 | 100.0 | 98.2 | 98.3 | 97.1 | 94.1 | 92.8 | 
10 | COc1ccc([C@@]23CCC(OC(=O)CC(C)(C)C)=C[C@@H]2N(C)CC3)cc1OC [Compound 431, (3aS,7aS)-3a-(3,4-dimethoxyphenyl)-1-methyl-2,3,3a,4,5,7a-hexahydro-1H-indol-6-yl3,3-dimethylbutanoate] |  |  |  |  |  |  |  |  | 100.0 | 82.1 | 69.0 | 62.8 | 52.6 | 37.4 | 100.0 | 74.5 | 45.7 | 16.5 | 2.3 | 0.2 | 
